Experiments:
[1] = system: splenocytes from PLP139-151-immunized SJL mice; assay: PLP139-151-induced cytokine production by splenocytes of PLP139-151-immunized mice; format: cell-based, mouse; conditions: 30 μg/ml lipid, 48 hours
Method: PLP-stimulated cells from PLP139-151-immunized mice administered PGPC prophylactically: SJL/J mice were co-injected with PGPC and PLP139-151 in CFA and sacrificed 48 days later. Lymph node cells and splenocytes were then harvested and re-stimulated in vitro (2.5×10^6 cells/ml) with 10 μg/ml of PLP139-151 or with media alone. PLP-stimulated cells from untreated PLP139-151-immunized mice: SJL/J mice were immunized with PLP139-151 in CFA and sacrificed 10 days later. Splenocytes were then harvested and re-stimulated in vitro (at 5×10^5 cells/ml) with 10 μg/ml of PLP139-151 in the presence of 30 μg/ml of POPS, PGPC, azPC ester, or azPC. Cytokine production by cells from the lymph nodes and spleens of PGPC co-immunized mice was measured after 66 hours of stimulation by using the BD OptEIA™ Mouse IFN-γ ELISA kit (BD Biosciences). Cytokine assays for the anti-CD3/anti-CD28 antibody-stimulated T cells and PLP139-151-stimulated splenocytes were performed on culture supernatants after 48 hours of stimulation using the BD OptEIA™ Mouse IL-6, IFN-γ, and TNF alpha ELISA kits (BD Biosciences) and the Mouse IL-17 DuoSet ELISA Development kit (R&D Systems).

[2] = system: CD3+ T cells; assay: Proliferation of anti-CD3/anti-CD28-stimulated purified T cells; format: cell-based, mouse; conditions: anti-CD3 or anti-CD3 and anti-CD28, 30 μg/ml lipid, 48 hours
Method: Splenocytes were harvested from mice transgenic for the MBPAc1-11-specific T-cell receptor and stimulated with 2 μg/ml of MBPAc1-11 in the presence of 30 μg/ml of lipid. Lymph nodes and spleens were also harvested from naive C57BL/6 mice, and CD3^+ T-cell enrichment columns (R&D systems) were used to isolate CD3^+ T cells. […] Cytokine assays were performed on culture supernatants after 24 (IL-12p40) or 48 hours (IFN-γ, IL-6, and TNF) of culture by using the BD OptEIA™ Mouse ELISA kits (BD Biosciences). Cd1d^−/− T cells: We harvested splenocytes from Cd1d^−/− mice and their wild-type littermates and used CD3^+ T-cell enrichment columns (R&D systems) to isolate T cells. […] Anti-CD3/anti-CD28-stimulated purified T cells: We harvested lymph nodes and spleens from naive C57BL/6 mice and used CD3^+ T-cell enrichment columns (R&D systems) to isolate CD3^+ T cells.

[3] = system: CD3+ T cells (gated on CD4+ T cells); assay: T-cell apoptosis, Annexin V and 7AAD staining; format: cell-based, mouse; conditions: 30 μg/ml lipid, anti-CD3 and anti-CD28, 48 hours
Method: FIG. 5. […] (C) TUNEL staining of brain and spinal-cord tissue from mice immunized with PLP139-151 peptide (to induce EAE) and treated for 12 h with azPC, POPS, or vehicle on day 15 after immunization. […] (D) Quantification of TUNEL-positive infiltrating cells in brain and spinal cord shown in panel (C). Cells were stained according to standard protocols, run on a FACScan flow cytometer (BD Biosciences), and analysed with CellQuest software (BD Immunocytometry Systems). The antibody conjugate used was FITC anti-CD4, clone GK1.5 (BD Pharmingen). 7AAD staining was performed by using the Annexin V-PE Apoptosis Detection Kit I (BD Pharmingen). Cells were stained according to standard protocols, run on a FACScan flow cytometer (BD Biosciences), and analysed with CellQuest software (BD Immunocytometry Systems) or with FlowJo software version 6.3.2 (Tree Star, Inc.).

[4] = system: infiltrating cells in brain and spinal cord of mice with EAE; assay: TUNEL assay on brain and spinal cord of EAE mice; format: in vivo, mouse; conditions: 200 μg i.v. on day 15 after immunization
Method: Mice with EAE were treated intravenously with 200 μg of azPC, 200 μg of POPS, or vehicle (0.05% Tween-20 in PBS) on day 15 after immunization with CFA and PLP139-151 peptide. Mice were treated with lipids for 12, 24, or 48 hours and then sacrificed and perfused with 4% paraformaldehyde. Brains and spinal cords were embedded in paraffin and sectioned. TUNEL-positive cells were detected by using the In Situ Cell Death Kit, AP (Roche) according to the manufacturer's instructions.

[5] = system: B cells; assay: Proliferation of anti-IgM F(ab')2/anti-CD40-stimulated purified B cells; format: cell-based, mouse; conditions: 30 μg/ml lipid, anti-IgM F(ab')2 and anti-CD40, 48 hours
Method: Anti-IgM F(ab′)2 fragment/anti-CD40-stimulated purified B cells: We harvested spleens from naive C57BL/6 mice and used a B-cell isolation kit (Miltenyi Biotec) to negatively isolate B cells. We then stimulated 5×10^5 cells/ml of B cells with 5 μg/ml of each of soluble anti-IgM F(ab′)2 fragment (Jackson ImmunoResearch) antibody and anti-CD40 antibody (eBioscience) in the presence of 30 μg/ml of POPS, PGPC, azPC ester, or azPC.

## CCCCCCCCCCCCCCCC(=O)OC[C@H](COP(=O)([O-])OCC[N+](C)(C)C)OC(=O)CCCC(=O)O [PGPC, 1-Palmitoyl-2-Glutaroyl-sn-Glycero-3-Phosphocholine]
[1]
  PLP139-151-induced cytokine production (IL-17, IL-6, IFN-γ, TNF): suppress
[2]
  T-cell proliferation, wild-type and Cd1d−/− T cells: suppress T-cell proliferation independently of CD1d

## CCCCCCCC/C=C\CCCCCCCC(=O)O[C@H](COC(=O)CCCCCCCCCCCCCCC)COP(=O)(O)OC[C@H](N)C(=O)O [POPS, 1-Palmitoyl-2-Oleoyl-sn-Glycero-3-[Phospho-L-Serine]]
[1]
  PLP139-151-induced cytokine production (IL-17, IL-6, IFN-γ, TNF): suppress
[2]
  T-cell proliferation, wild-type and Cd1d−/− T cells: suppress T-cell proliferation independently of CD1d
[3]
  increase in T-cell apoptosis: > 5 fold
[4]
  number of TUNEL-positive cells with lymphocyte morphology in brain and spinal cord: increased the number of TUNEL-positive cells
[5]
  proliferation of activated B cells: modestly suppressed proliferation

## CCCCCCCCCCCCCCCC(=O)OC[C@H](COP(=O)([O-])OCC[N+](C)(C)C)OC(=O)CCCCCCCC(=O)O [azPC, 1-Palmitoyl-2-Azelaoyl-sn-Glycero-3-Phosphocholine]
[1]
  PLP139-151-induced cytokine production (IL-17, IL-6, IFN-γ, TNF): suppress
[2]
  T-cell proliferation, wild-type and Cd1d−/− T cells: suppress T-cell proliferation independently of CD1d
[3]
  increase in T-cell apoptosis: > 4 fold
[4]
  number of TUNEL-positive cells with lymphocyte morphology in brain and spinal cord: increased the number of TUNEL-positive cells
[5]
  proliferation of activated B cells: modestly suppressed proliferation

Reference: patent US20130281409A1, “Myelin Sheath Fatty Acids that Resolve Neuroinflammation” (priority 2012, published 2013)
